pIC50: −log10 of the molar value.
Tests used:
[1] = target: DGKα (Homo sapiens (Human), UniProt P23743); experiment: In vitro DGKα inhibition assay (ADP-Glo); format: biochemical; conditions: His-tagged human recombinant enzyme, 0.1 nM DGKα, 50 μM ATP, 20 μM DLG, 90 minute incubation
Outline: (§1)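 His-tagged human DGKα (0.1 nM, 50 μM ATP) or DGKζ (0.4 nM, 30 μM ATP), each with 20 μM DLG, in Tris pH 7.5 buffer with CHAPS, Mg2+, Ca2+.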

[2] = target: DGKζ (Homo sapiens (Human), UniProt Q13574); experiment: In vitro DGKζ inhibition assay (ADP-Glo); format: biochemical; conditions: His-tagged human recombinant enzyme, 0.4 nM DGK, 30 μM ATP, 20 μM DLG, 90 minute incubation
Chain of DGKζ (Q13574 whole entry): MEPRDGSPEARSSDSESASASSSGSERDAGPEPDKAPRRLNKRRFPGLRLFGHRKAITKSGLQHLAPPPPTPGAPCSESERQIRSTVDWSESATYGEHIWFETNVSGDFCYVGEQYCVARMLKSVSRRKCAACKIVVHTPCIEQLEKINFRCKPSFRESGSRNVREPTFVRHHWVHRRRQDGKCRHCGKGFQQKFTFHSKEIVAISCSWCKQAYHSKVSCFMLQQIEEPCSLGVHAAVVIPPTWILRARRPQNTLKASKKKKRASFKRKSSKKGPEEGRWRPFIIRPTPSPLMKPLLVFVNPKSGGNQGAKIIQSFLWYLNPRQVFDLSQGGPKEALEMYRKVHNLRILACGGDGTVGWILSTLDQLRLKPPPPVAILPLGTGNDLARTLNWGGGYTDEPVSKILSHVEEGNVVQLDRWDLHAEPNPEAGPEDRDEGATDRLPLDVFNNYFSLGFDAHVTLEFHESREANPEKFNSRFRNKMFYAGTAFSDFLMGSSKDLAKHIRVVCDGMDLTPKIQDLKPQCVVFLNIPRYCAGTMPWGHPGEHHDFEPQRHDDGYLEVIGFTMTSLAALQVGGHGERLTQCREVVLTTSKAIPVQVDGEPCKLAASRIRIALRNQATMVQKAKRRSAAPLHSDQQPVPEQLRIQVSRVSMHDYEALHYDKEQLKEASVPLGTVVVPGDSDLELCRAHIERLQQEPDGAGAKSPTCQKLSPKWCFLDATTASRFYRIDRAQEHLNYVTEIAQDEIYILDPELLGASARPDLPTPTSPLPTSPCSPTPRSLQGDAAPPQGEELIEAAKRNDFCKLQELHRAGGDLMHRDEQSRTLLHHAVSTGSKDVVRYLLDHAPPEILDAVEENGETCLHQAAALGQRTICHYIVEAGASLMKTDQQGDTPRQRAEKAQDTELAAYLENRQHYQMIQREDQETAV
Outline: as §1

Chain of DGKα (P23743 whole entry): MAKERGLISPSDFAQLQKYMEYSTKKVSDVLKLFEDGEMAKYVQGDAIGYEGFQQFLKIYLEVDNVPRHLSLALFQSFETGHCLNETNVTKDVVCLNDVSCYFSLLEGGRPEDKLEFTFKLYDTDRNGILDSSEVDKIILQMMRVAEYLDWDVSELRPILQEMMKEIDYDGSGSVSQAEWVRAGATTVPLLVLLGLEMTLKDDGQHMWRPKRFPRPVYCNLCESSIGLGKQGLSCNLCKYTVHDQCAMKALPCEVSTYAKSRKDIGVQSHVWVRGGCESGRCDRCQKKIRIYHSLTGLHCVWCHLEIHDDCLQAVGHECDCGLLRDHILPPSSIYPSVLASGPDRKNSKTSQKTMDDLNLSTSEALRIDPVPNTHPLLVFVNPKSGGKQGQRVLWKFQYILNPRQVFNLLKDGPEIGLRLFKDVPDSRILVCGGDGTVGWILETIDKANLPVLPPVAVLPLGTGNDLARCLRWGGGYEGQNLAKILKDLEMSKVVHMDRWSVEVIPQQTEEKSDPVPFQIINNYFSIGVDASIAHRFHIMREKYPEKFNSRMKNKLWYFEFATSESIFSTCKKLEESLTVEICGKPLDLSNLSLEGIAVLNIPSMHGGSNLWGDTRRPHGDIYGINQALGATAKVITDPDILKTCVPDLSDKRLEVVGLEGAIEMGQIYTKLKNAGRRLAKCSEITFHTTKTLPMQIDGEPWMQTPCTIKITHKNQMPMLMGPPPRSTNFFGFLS

Row | SMILES | pIC50 [1] | pIC50 [2]
1 | [2H]c1nc2c(N3C[C@@H](CC)N(C(c4ccc(F)cc4)c4ccc(F)cc4)C[C@@H]3C)nc3nncn3c2n1CCN(C)C [Example 38, 2-(4-((2S,5R)-4-(Bis(4-fluorophenyl)methyl)-5-ethyl-2-methylpiperazin-1-yl)-1H-[1,2,4]triazolo[3,4-b]purin-1-yl-2-d)-N,N-dimethylethan-1-amine] | ≥ 7.70 | ≥ 7.70
2 | C[C@@H]1CN(c2nc3nncn3c3c2ncn3CCN(C)C)[C@@H](C)CN1C(c1ccc(C(F)(F)F)cc1)[C@H]1C[C@H](C(F)(F)F)C1 (stereo partly drawn) [Example 116, 2-(4-((2S,5R)-2,5-Dimethyl-4-(((trans)-3-(trifluoromethyl)cyclobutyl)(4-(trifluoromethyl)phenyl)methyl)piperazin-1-yl)-1H-[1,2,4]triazolo[3,4-b]purin-1-yl)-N,N-dimethylethan-1-amine] | ≥ 7.70 | ≥ 7.70
3 | CC[C@@H]1CN(c2nc3nncn3c3c2nnn3C[C@@H]2CCCO2)[C@@H](C)CN1C(c1ccc(F)cc1)C1CC(F)(F)C1 (single isomer, unassigned) [Example 120] | ≥ 7.70 | ≥ 7.70
4 | CC[C@@H]1CN(c2nc3nncn3c3c2nc(C)n3C[C@@H]2CCCO2)[C@@H](C)CN1C(c1ccc(F)cc1)c1ccc(C#N)cc1 (stereo partly drawn) [Example 132, 4-(((2R,5S)-2-Ethyl-5-methyl-4-(2-methyl-1-(((S)-tetrahydrofuran-2-yl)methyl)-1H-[1,2,4]triazolo[3,4-b]purin-4-yl)piperazin-1-yl)(4-fluorophenyl)methyl)benzonitrile] | ≥ 7.70 | ≥ 7.70
5 | Cc1nc2c(N3C[C@@H](C)N([C@@H](c4ccc(OC(F)F)cc4F)C(C)C)C[C@@H]3C)nc3nncn3c2n1C[C@@H]1CCCO1 [Example 76, 4-((2S,5R)-4-((R)-1-(4-(difluoromethoxy)-2-fluorophenyl)-2-methylpropyl)-2,5-dimethylpiperazin-1-yl)-2-methyl-1-(((S)-tetrahydrofuran-2-yl)methyl)-1H-[1,2,4]triazolo[3,4-b]purine] | ≥ 7.70 | ≥ 7.70
6 | CC[C@@H]1CN(c2nc3nncn3c3c2nc(C)n3C[C@H]2CCCO2)[C@@H](C)CN1C(c1ccc(Cl)cc1)c1ccc(Cl)cc1 [Example 42, 4-((2S,5R)-4-(Bis(4-chlorophenyl)methyl)-5-ethyl-2-methylpiperazin-1-yl)-2-methyl-1-(((R)-tetrahydrofuran-2-yl)methyl)-1H-[1,2,4]triazolo[3,4-b]purine] | ≥ 7.70 | ≥ 7.70
7 | Cc1nc2c(N3C[C@@H](C)N(C(c4ccc(Cl)cc4)C4CC(F)(F)C4)C[C@@H]3C)nc3nncn3c2n1C[C@@H]1CCCO1 (stereo partly drawn) [Example 60, 4-((2S,5R)-4-((4-Chlorophenyl)(3,3-difluorocyclobutyl)methyl)-2,5-dimethylpiperazin-1-yl)-2-methyl-1-(((S)-tetrahydrofuran-2-yl)methyl)-1H-[1,2,4]triazolo[3,4-b]purine] | ≥ 7.70 | ≥ 7.70
8 | CC[C@@H]1CN(c2nc3nncn3c3c2nc(C)n3C[C@@H]2CCCO2)[C@@H](C)CN1[C@H](c1ccc(OC(F)(F)F)cc1)C(C)C [Example 130, 4-((2S,5R)-5-ethyl-2-methyl-4-((S)-2-methyl-1-(4-(trifluoromethoxy)phenyl)propyl)piperazin-1-yl)-2-methyl-1-(((S)-tetrahydrofuran-2-yl)methyl)-1H-[1,2,4]triazolo[3,4-b]purine] | ≥ 7.70 | ≥ 7.70
9 | Cc1nc2c(N3C[C@@H](C)N([C@H](c4ccc(C(F)F)cc4)C(C)C)C[C@@H]3C)nc3nncn3c2n1C[C@@H]1CCCO1 [Example 73, 4-((2S,5R)-4-((S)-1-(4-(Difluoromethyl)phenyl)-2-methylpropyl)-2,5-dimethylpiperazin-1-yl)-2-methyl-1-(((S)-tetrahydrofuran-2-yl)methyl)-1H-[1,2,4]triazolo[3,4-b]purine] | ≥ 7.70 | ≥ 7.70

From patent US20230399342A1 (Incyte Corporation, priority 2022, published 2023)
